Measurements as given in patent US8933230B2, “Phosphorus-containing group-substituted quinoline, its preparation process, medical composition containing the compounds and application” (priority 2011, dated 2015).

Experiments:
[1] = target: T1, ABL1(T315I)-nonphosphorylated (Homo sapiens, UniProt P00519, T315I); assay: KinomeScan kinase panel; format: binding
T1 construct: purchased DiscoveRx Corporation (KinomeScan)
Method: (§1) In this example, the compound prepared in Example 10, N1-[4-[[7-[[1-(diethoxyphosphorylmethyl)-4-piperidinyl]methoxyl]-6-methoxyl-4-quinolyl]oxyl]-3-fluorophenyl]-N1′-(4-fluorophenyl)cyclopropane-1,1-dicarboxamide is tested for the inhibitory effect in the 442-kinase panel of KinomeScan™ (www.kinomescan.com) from DiscoveRx Corporation (4215 Sorrento Valley Blvd, San Diego, Calif. 92121) at 1000 nM of the compound concentration, the results are shown in the following Table 5:
(§2) For the detailed information of the screening technique, see Fabian, M. A. et al, Nat., Biotechnol. 2005, 23, 329 and Karaman, M. W. et al, Nat., Biotechnol. 2008, 26, 127. It can be seen from the following representative results that, the compound according to the present invention has significant inhibitory effect on kinases including c-Met, KDR or VEGFR2, RET, PDGFR-β, c-KIT, Flt3, MEK5, DDR1, LOK, CSF1R, EPHA7, EPHA8, EPHB6, MKNK2, BLK, HIPK4, HCK, Flt4 and the mutants thereof

AMPK-alpha1 = target: T2, AMPK-alpha1 (Homo sapiens, UniProt Q13131); assay: KinomeScan kinase panel; format: binding
T2 construct: purchased DiscoveRx Corporation (KinomeScan)
Method: as §1, §2

DCAMKL1 = target: T3, DCAMKL1 (Homo sapiens, UniProt O15075); assay: KinomeScan kinase panel; format: binding
T3 construct: purchased DiscoveRx Corporation (KinomeScan)
Method: as §1, §2

EGFR(L747-E749del,A750P) = target: T4, EGFR(L747-E749del,A750P) (Homo sapiens, UniProt P00533, A750P/DEL747-749); assay: KinomeScan kinase panel; format: binding
T4 construct: purchased DiscoveRx Corporation (KinomeScan)
Method: as §1, §2

FLT3 = target: T5, FLT3 (Homo sapiens, UniProt P36888); assay: KinomeScan kinase panel; format: binding
T5 construct: purchased DiscoveRx Corporation (KinomeScan)
Method: as §1, §2

FLT3(D835H) = target: T6, FLT3(D835H) (Homo sapiens, UniProt P36888, D835H); assay: KinomeScan kinase panel; format: binding
T6 construct: purchased DiscoveRx Corporation (KinomeScan)
Method: as §1, §2

GAK = target: T7, GAK (Homo sapiens, UniProt O14976); assay: KinomeScan kinase panel; format: binding
T7 construct: purchased DiscoveRx Corporation (KinomeScan)
Method: as §1, §2

INSRR = target: T8, INSRR (Homo sapiens, UniProt P14616); assay: KinomeScan kinase panel; format: binding
T8 construct: purchased DiscoveRx Corporation (KinomeScan)
Method: as §1, §2

IRAK1 = target: T9, IRAK1 (Homo sapiens, UniProt P51617); assay: KinomeScan kinase panel; format: binding
T9 construct: purchased DiscoveRx Corporation (KinomeScan)
Method: as §1, §2

[2] = target: T10, JAK1(JH1domain-catalytic) (Homo sapiens, UniProt P23458); assay: KinomeScan kinase panel; format: binding
T10 construct: JAK1(JH1domain-catalytic); purchased DiscoveRx Corporation (KinomeScan)
Method: as §1, §2

[3] = target: T11, JAK3(JH1domain-catalytic) (Homo sapiens, UniProt P52333); assay: KinomeScan kinase panel; format: binding
T11 construct: JAK3(JH1domain-catalytic); purchased DiscoveRx Corporation (KinomeScan)
Method: as §1, §2

KIT(D816V) = target: T12, KIT(D816V) (Homo sapiens, UniProt P10721, D816V); assay: KinomeScan kinase panel; format: binding
T12 construct: purchased DiscoveRx Corporation (KinomeScan)
Method: as §1, §2

LZK = target: T13, LZK (Homo sapiens, UniProt O43283); assay: KinomeScan kinase panel; format: binding
T13 construct: purchased DiscoveRx Corporation (KinomeScan)
Method: as §1, §2

MAK = target: T14, MAK (Homo sapiens, UniProt P20794); assay: KinomeScan kinase panel; format: binding
T14 construct: purchased DiscoveRx Corporation (KinomeScan)
Method: as §1, §2

MAP3K15 = target: T15, MAP3K15 (Homo sapiens, UniProt Q6ZN16); assay: KinomeScan kinase panel; format: binding
T15 construct: purchased DiscoveRx Corporation (KinomeScan)
Method: as §1, §2

MAPKAPK5 = target: T16, MAPKAPK5 (Homo sapiens, UniProt Q8IW41); assay: KinomeScan kinase panel; format: binding
T16 construct: purchased DiscoveRx Corporation (KinomeScan)
Method: as §1, §2

MERTK = target: T17, MERTK (Homo sapiens, UniProt Q12866); assay: KinomeScan kinase panel; format: binding
T17 construct: purchased DiscoveRx Corporation (KinomeScan)
Method: as §1, §2

MLK3 = target: T18, MLK3 (Homo sapiens, UniProt Q16584); assay: KinomeScan kinase panel; format: binding
T18 construct: purchased DiscoveRx Corporation (KinomeScan)
Method: as §1, §2

PCTK2 = target: T19, PCTK2 (Homo sapiens, UniProt Q00537); assay: KinomeScan kinase panel; format: binding
T19 construct: purchased DiscoveRx Corporation (KinomeScan panel)
Method: as §1, §2

PIK3CA(E545A) = target: T20, PIK3CA(E545A) (Homo sapiens, UniProt P42336, E545A); assay: KinomeScan kinase panel; format: binding
T20 construct: purchased DiscoveRx Corporation (KinomeScan)
Method: as §1, §2

PRKD2 = target: T21, PRKD2 (Homo sapiens, UniProt Q9BZL6); assay: KinomeScan kinase panel; format: binding
T21 construct: purchased DiscoveRx Corporation (KinomeScan)
Method: as §1, §2

RIPK4 = target: T22, RIPK4 (Homo sapiens, UniProt P57078); assay: KinomeScan kinase panel; format: binding
T22 construct: purchased DiscoveRx Corporation
Method: as §1, §2

PFPK5 (P. falciparum) = target: T23, PFPK5 (P. falciparum) (Plasmodium falciparum, UniProt P61075); assay: KinomeScan kinase panel; format: binding
T23 construct: purchased DiscoveRx Corporation (KinomeScan)

PDGFR-β = target: T24, PDGFR-β (Mus musculus, UniProt P05622); assay: PDGFR-β kinase phosphorylation in NIH3T3 cells (sandwich ELISA); format: cell-based; conditions: PDGF-BB 100 ng/mL 3 min, mean value of two testing results, read-out: IC50 values in the cell, PDGFR-β
T24 construct: cell line NIH3T3 having endogenous high expression wild type PDGFR-β; endogenous in cells; host or cells: NIH3T3
Method: Inhibitory activity on the kinases in tumor cells: In this example, the compound prepared in Example 10, N1-[4-[[7-[[1-(diethoxyphosphorylmethyl)-4-piperidinyl]methoxyl]-6-methoxyl-4-quinolyl]oxyl]-3-fluorophenyl]-N1′-(4-fluorophenyl)cyclopropane-1,1-dicarboxamide is tested in tumor cells by ProQinase GmbH corporation (Breisacher Str. 117, D-79106 Freiburg, Germany. www.proqinase.com) for the inhibitory activity on the following kinases: c-KIT, c-MET, VEGFR2 and PDGFR-β. The test includes the following steps:
Firstly, the compound according to present invention is dissolved in dimethyl sulfoxide (DMSO) to prepare a 10 mM stock solution, which is diluted serially according to the concentration range shown in Table 6:
PDGFR-β kinase: in the test experiment of PDGFR-beta kinase phosphorylation in the cells, mouse embryo fibroblast cell line NIH3T3 having endogenous high expression wild type PDGFR-β (wild-type PDGFR-β) is used. When these cells are simulated with mouse platelet-derived growth factor BB (PDGF-BB), it causes the tyrosine of PDGFR-beta receptor kinases self-phosphorylated. NIH3T3 cells are inoculated in DMEM culture solution containing 10% FCS in a multi-well cell culture dish. The compound of the invention is added to the cells after serum overnight starvation, then the cells are cultured in a medium without serum. […]

T2 sequence (Q13131 whole entry): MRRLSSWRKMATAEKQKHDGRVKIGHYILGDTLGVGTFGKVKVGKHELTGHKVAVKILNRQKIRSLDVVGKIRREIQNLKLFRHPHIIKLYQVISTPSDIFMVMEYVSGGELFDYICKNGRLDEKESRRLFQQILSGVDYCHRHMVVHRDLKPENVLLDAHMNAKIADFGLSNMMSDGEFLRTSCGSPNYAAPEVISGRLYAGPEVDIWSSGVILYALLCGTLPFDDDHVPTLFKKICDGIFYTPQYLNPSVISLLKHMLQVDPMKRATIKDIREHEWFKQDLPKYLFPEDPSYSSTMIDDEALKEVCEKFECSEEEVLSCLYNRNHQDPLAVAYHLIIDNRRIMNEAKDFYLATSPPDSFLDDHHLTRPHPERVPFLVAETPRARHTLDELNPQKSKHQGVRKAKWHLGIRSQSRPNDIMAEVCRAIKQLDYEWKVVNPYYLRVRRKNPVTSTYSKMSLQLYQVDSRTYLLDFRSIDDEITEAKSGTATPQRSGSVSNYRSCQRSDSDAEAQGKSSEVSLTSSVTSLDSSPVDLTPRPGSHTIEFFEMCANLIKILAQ
T23 sequence (P61075 whole entry): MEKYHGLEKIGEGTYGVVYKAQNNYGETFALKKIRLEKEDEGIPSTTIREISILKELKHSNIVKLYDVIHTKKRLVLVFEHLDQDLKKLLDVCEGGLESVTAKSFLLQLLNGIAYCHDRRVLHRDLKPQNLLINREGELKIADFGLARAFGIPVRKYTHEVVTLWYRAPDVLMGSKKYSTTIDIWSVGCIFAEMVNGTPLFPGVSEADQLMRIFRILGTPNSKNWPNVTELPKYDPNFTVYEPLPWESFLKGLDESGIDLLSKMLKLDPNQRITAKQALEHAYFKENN
T18 sequence (Q16584 whole entry): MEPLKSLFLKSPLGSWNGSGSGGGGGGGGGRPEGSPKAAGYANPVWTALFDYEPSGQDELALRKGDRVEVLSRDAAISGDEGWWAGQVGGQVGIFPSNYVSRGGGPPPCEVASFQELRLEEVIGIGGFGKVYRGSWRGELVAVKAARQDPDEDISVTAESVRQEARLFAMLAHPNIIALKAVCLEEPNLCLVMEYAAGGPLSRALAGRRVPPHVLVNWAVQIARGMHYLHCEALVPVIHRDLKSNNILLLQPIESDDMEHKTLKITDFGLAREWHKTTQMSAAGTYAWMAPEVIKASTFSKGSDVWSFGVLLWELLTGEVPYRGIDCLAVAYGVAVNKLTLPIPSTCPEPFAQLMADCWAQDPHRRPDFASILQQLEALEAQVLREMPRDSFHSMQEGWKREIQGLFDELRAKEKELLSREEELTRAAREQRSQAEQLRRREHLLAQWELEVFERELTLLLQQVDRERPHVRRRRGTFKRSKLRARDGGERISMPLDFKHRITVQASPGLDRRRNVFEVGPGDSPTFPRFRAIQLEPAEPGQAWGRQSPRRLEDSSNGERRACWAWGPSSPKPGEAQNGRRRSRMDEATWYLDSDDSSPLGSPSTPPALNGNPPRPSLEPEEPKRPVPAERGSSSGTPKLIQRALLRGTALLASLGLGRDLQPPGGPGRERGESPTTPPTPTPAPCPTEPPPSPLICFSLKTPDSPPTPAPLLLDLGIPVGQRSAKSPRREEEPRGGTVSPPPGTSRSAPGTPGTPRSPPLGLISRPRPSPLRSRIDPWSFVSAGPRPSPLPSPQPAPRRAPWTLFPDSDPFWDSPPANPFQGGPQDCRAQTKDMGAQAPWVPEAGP
T11 sequence (P52333 822-1111 limits assumed): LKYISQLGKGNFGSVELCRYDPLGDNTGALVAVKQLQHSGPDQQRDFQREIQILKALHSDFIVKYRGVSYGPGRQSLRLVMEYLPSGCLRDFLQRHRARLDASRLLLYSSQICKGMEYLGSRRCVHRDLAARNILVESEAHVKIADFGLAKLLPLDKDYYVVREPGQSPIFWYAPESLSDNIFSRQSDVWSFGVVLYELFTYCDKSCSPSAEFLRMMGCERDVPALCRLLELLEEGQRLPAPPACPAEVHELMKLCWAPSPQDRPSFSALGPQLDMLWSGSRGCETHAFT
T10 sequence (P23458 875-1153 limits assumed): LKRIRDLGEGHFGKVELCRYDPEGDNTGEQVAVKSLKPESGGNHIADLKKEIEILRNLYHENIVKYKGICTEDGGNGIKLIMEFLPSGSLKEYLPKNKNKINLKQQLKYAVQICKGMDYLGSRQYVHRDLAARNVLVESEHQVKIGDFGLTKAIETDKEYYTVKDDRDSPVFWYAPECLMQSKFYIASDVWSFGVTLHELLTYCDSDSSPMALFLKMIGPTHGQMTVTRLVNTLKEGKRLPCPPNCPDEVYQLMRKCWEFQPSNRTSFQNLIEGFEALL
T12 sequence (P10721 26-976 D816V): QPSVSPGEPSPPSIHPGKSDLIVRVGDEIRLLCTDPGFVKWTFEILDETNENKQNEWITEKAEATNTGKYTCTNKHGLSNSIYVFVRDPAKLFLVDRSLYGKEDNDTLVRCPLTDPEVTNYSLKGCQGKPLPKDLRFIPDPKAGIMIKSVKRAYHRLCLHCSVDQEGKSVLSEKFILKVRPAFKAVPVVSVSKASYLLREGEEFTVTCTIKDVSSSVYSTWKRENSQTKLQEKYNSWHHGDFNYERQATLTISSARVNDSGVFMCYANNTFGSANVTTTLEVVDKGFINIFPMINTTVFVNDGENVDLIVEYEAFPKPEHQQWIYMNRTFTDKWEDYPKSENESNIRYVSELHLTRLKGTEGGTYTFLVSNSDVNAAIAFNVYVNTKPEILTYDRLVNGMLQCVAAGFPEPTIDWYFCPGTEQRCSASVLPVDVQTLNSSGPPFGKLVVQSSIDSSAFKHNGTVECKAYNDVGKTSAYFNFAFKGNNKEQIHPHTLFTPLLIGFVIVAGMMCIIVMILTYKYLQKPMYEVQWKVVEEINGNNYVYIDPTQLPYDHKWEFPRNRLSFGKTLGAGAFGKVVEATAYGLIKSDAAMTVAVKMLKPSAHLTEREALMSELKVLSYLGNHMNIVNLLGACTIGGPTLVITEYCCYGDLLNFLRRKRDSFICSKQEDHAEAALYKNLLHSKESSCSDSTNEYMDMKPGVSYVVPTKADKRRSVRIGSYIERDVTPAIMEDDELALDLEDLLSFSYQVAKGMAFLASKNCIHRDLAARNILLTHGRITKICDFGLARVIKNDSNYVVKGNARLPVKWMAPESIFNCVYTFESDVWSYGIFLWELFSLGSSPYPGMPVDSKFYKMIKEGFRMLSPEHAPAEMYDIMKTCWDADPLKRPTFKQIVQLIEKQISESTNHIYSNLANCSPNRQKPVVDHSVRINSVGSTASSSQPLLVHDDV
T17 sequence (Q12866 21-999): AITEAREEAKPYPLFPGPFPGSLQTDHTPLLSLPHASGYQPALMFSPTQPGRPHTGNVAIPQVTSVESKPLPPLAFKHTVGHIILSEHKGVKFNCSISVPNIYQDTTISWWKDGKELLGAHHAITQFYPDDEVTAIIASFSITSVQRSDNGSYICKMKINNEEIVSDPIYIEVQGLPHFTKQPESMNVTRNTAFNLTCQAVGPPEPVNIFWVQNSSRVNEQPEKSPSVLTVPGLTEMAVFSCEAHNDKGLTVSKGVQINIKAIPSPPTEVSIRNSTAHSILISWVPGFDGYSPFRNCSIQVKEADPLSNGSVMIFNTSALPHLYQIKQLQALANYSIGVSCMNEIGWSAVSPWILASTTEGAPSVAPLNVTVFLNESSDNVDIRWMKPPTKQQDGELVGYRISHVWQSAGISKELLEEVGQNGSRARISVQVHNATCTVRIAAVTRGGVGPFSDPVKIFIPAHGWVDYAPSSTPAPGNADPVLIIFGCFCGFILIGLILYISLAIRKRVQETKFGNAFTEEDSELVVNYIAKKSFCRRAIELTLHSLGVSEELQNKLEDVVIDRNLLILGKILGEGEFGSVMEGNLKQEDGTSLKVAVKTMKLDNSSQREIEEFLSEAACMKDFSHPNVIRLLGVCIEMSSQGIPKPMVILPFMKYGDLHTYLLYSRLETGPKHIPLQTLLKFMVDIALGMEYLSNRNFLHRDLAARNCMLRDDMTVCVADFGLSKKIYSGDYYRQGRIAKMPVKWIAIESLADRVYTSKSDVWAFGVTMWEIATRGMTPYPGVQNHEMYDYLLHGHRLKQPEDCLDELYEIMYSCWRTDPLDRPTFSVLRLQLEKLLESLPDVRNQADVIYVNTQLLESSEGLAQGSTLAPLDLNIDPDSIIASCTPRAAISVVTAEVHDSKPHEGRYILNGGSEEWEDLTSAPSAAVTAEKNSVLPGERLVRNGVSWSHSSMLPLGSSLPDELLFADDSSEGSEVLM
T19 sequence (Q00537 whole entry): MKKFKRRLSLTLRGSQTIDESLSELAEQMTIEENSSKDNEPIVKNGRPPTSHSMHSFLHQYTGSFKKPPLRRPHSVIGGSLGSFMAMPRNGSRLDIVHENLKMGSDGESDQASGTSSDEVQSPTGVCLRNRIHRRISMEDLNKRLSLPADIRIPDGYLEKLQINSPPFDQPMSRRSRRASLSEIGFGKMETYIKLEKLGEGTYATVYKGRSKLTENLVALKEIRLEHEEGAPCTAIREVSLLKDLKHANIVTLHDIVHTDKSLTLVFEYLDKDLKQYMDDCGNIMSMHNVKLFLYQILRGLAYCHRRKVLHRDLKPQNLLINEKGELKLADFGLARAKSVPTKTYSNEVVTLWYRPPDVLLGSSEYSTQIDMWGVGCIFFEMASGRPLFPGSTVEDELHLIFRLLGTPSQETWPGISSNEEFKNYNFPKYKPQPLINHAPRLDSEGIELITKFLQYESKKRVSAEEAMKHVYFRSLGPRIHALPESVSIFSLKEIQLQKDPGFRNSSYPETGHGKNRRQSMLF

SMILES: CCOP(=O)(CN1CCC(COc2cc3nccc(Oc4ccc(NC(=O)C5(C(=O)Nc6ccc(F)cc6)CC5)cc4F)c3cc2OC)CC1)OCC [Example 10, N1-[4-[[7-[[1-(diethoxyphosphorylmethyl)-4-piperidinyl]methoxyl]-6-methoxyl-4-quinolyl]oxyl]-3-fluorophenyl]-N1′-(4-fluorophenyl)cyclopropane-1,1-dicarboxamide]
- % Ctrl@1000 nM [1]: 3.8 % Ctrl
- % Ctrl@1000 nM (AMPK-alpha1): 100 % Ctrl
- % Ctrl@1000 nM (DCAMKL1): 91 % Ctrl
- % Ctrl@1000 nM (EGFR(L747-E749del,A750P)): 67 % Ctrl
- % Ctrl@1000 nM (FLT3): 2.3 % Ctrl
- % Ctrl@1000 nM (FLT3(D835H)): 0.6 % Ctrl
- % Ctrl@1000 nM (GAK): 100 % Ctrl
- % Ctrl@1000 nM (INSRR): 65 % Ctrl
- % Ctrl@1000 nM (IRAK1): 100 % Ctrl
- % Ctrl@1000 nM [2]: 93 % Ctrl
- % Ctrl@1000 nM [3]: 100 % Ctrl
- % Ctrl@1000 nM (KIT(D816V)): 18 % Ctrl
- % Ctrl@1000 nM (LZK): 47 % Ctrl
- % Ctrl@1000 nM (MAK): 100 % Ctrl
- % Ctrl@1000 nM (MAP3K15): 100 % Ctrl
- % Ctrl@1000 nM (MAPKAPK5): 100 % Ctrl
- % Ctrl@1000 nM (MERTK): 2.1 % Ctrl
- % Ctrl@1000 nM (MLK3): 63 % Ctrl
- % Ctrl@1000 nM (PCTK2): 100 % Ctrl
- % Ctrl@1000 nM (PIK3CA(E545A)): 74 % Ctrl
- % Ctrl@1000 nM (PRKD2): 100 % Ctrl
- % Ctrl@1000 nM (RIPK4): 89 % Ctrl
- % Ctrl@1000 nM (PFPK5 (P. falciparum)): 100 % Ctrl
- IC50 (PDGFR-β): 13 nM
